Results as given in US6716986B2, “Sulfuric acid mono-[3-({1-[2-(4-fluoro-phenyl)-ethyl]-piperidin-4-YL}-hydroxy-methyl)-2-methoxy-phenyl]ester” (Aventis Pharmaceuticals Inc., priority 1999, dated 2004).

Assays:
human D2L = molecular target: T1, human D2L (Homo sapiens, UniProt P14416); assay: In vitro inhibition of [3H]-ligand binding to human D2L receptor; conditions: [3H]N-methyl spiperone, CHO cell membranes, 37° C.; read-out: D2 (Ki μM)
T1 construct: expressed in transfected cells
Procedure: (§1) Cells stably expressing the human homologs of the receptors (dopamine D2L, serotonin 5HT2A and 5HT2C, α1A adrenergic; cloned and expressed at Hoechst Marion Roussel; Grandy et al., 1989; Monsma et al., 1993; Schwinn et al., 1995) were grown; cell membranes were prepared, and kept frozen until used (Kongsamut et al., 1996). […] All binding parameters were optimized at Hoechst Marion Roussel; ligand Kds were determined using both saturation analysis (Scatchard) as well as kinetic analysis (association and dissociation rates). Each batch of membrane was validated by checking the ligand Kd, and rank order of potency of selected standard compounds. Assays for the serotonin 5HT2A and dopamine D2L receptors were conducted at 37° C. in a Tris buffer containing salts (50 mM Tris Buffer, pH 7.7; 120 mM NaCl; 5 mM KCl; 2 mM CaCl2; 1 mM MgCl2), while the serotonin 5-HT2C and α1A adrenergic receptor assays used a different buffer without salts (50 mM Tris, 4 mM CaCl2 and 1% ascorbate, pH 7.4). […]
(§2) Membranes were rapidly thawed and diluted to an appropriate concentration (between 20-150 μg protein/assay point depending on receptor expression level) in Tris buffer and homogenized. […] Microscint scintillation cocktail (40 μl) were added and the filter plates were counted in a Packard Top Count scintillation counter.

human 5-HT2A = molecular target: T2, human 5-HT2A (Homo sapiens, UniProt P28223); assay: In vitro inhibition of [3H]-ligand binding to human 5-HT2A receptor
T2 construct: expressed in transfected cells
Procedure: Cells stably expressing the human homologs of the receptors (dopamine D2L, serotonin 5HT2A and 5HT2C, α1A adrenergic; cloned and expressed at Hoechst Marion Roussel; Grandy et al., 1989; Monsma et al., 1993; Schwinn et al., 1995) were grown; cell membranes were prepared, and kept frozen until used (Kongsamut et al., 1996). The relevance of these binding sites has been extensively discussed in the literature (see for example: Carlsson & Carlsson, 1990; Creese et al., 1976; Gorman & Vargas, 1995; Meltzer et al., 1989). All binding parameters were optimized at Hoechst Marion Roussel; ligand Kds were determined using both saturation analysis (Scatchard) as well as kinetic analysis (association and dissociation rates). Each batch of membrane was validated by checking the ligand Kd, and rank order of potency of selected standard compounds. […]
as §2, with “counter. Data were analyzed to determine Ki's for compounds of interest (Prusoff & Cheng, […]).Table: Receptor Binding Parameters.” for “counter.”

human 5-HT2c = molecular target: T3, human 5-HT2c (Homo sapiens, UniProt P28335); assay: In vitro inhibition of [3H]-ligand binding to human 5-HT2C receptor; conditions: [3H]mesulergine, CHO cell membranes
T3 construct: expressed in transfected cells
T3 sequence (P28335 33-458): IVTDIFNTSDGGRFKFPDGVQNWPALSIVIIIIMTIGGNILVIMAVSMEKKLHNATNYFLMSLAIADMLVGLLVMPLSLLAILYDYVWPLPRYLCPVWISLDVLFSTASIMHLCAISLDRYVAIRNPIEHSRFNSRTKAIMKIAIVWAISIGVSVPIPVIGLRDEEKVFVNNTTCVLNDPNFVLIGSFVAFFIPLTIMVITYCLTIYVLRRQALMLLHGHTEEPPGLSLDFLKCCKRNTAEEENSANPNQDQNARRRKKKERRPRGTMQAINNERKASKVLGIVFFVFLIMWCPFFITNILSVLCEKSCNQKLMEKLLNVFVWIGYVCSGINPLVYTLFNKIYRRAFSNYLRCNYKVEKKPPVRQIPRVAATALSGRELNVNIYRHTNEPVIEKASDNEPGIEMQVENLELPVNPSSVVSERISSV
Procedure: as §1, §2

human α1A = molecular target: T4, human α1A (Homo sapiens, UniProt P35348); assay: In vitro inhibition of [3H]-ligand binding to human α1A adrenergic receptor; conditions: [3H]prazosin, CHO cell membranes
T4 construct: expressed in transfected cells
T4 sequence (P35348 1-466): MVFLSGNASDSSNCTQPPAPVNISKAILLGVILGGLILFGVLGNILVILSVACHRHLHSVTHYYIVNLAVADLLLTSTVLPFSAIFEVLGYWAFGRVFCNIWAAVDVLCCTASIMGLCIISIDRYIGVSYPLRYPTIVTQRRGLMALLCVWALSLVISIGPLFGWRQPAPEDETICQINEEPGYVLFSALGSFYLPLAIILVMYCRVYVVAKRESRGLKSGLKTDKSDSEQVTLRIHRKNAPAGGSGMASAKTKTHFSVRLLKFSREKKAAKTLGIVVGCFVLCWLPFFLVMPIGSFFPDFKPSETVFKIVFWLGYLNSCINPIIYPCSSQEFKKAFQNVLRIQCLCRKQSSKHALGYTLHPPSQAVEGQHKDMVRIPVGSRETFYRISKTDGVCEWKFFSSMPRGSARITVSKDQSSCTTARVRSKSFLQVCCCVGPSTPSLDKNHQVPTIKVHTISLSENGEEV
Procedure: as §1, §2

[1] = In vitro BBMEC permeability (transport studies); type: in vitro ADME; conditions: bovine, mean±standard deviation
Procedure: The procedure was performed according to: Kenneth L. Audus et al., Brain Microvessel Endothelial Cell Culture System (Chapter 13) pp 239-258. In Models for Assessing Drug Absorption and Metabolism, Ronald T. Borchardt et al. eds., Plenum Press, New York 1996, incorporated herein by reference.

T2 sequence (P28223 whole entry): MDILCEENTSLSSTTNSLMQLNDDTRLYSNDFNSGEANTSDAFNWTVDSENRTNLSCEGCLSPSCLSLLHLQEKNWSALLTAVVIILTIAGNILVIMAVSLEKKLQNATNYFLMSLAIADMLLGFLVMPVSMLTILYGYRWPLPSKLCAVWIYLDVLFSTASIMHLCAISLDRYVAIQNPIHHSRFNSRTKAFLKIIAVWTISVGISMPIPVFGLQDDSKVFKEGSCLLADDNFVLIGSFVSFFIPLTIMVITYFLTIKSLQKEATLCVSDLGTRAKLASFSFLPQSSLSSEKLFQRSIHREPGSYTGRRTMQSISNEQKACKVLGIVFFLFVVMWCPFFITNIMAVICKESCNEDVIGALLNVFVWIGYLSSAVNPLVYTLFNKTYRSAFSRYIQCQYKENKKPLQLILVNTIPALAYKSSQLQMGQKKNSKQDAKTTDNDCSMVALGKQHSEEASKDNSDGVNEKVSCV
T1 sequence (P14416 whole entry): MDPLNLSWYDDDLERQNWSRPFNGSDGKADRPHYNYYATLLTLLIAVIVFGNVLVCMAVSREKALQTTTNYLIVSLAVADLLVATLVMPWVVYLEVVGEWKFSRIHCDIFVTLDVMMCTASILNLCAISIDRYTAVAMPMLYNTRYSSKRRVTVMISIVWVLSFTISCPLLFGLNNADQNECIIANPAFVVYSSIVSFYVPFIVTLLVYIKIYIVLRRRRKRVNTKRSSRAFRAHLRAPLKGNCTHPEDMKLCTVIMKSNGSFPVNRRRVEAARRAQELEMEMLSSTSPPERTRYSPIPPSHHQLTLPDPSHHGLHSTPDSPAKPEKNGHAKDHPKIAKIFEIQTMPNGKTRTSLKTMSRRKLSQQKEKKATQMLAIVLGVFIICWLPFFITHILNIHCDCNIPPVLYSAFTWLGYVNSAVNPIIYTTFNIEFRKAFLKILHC

COc1c(OS(=O)(=O)O)cccc1C(O)C1CCN(CCc2ccc(F)cc2)CC1 (stereo not drawn) [Example 1H, Sulfuric acid mono-(+)-[3-(-{1-[2-(4-fluoro-phenyl)-ethyl]-piperidin-4-yl}-hydroxy-methyl)-2-methoxy-phenyl] ester]
Ki (human D2L): > 1 µM
Ki (human 5-HT2A; [3H]N-methyl spiperone, BHK cell membranes, 37° C.): 0.16 µM
Ki (human 5-HT2c): > 1 µM
Ki (human α1A): > 1 µM

OC[C@@H](O)[C@@H](O)[C@H](O)[C@H](O)CO [Mannitol (standard), Mannitol]
Papp at 5.4 μM [1]: 27.6 ± 2.3 ×10⁻⁶ cm/s

CN1CN(c2ccccc2)C2(CCN(CCCC(=O)c3ccc(F)cc3)CC2)C1=O [[^3H]N-methyl spiperone, reference compound]
Kd (human 5-HT2A; human 5-HT2A, BHK, saturation (Scatchard) and kinetic analysis): 0.92 nM
